Source: publication PMC6797808, “Fucosylated inhibitors of recently identified bangle lectin from Photorhabdus asymbiotica” (Scientific Reports, 2019)
In brackets after ≈: the same amount, converted by molar mass. Marks after values point to notes of the source that are not given here.

Tests used:
[1] = target: T1, PHL (Photorhabdus asymbiotica, UniProt C7BLE4); assay: SPR competitive inhibition of PHL binding to α-L-fucoside sensor chip; details: for IC50: 25 °C, three independent measurements; for β L-Fuc (affinity improvement factor): IC50,basic unit/(valency × IC50,ligand), basic unit L-Fuc; for PotencyL-Fuc: IC50 L-fucose / IC50 ligand
T1 sequence (C7BLE4 entry or part of it): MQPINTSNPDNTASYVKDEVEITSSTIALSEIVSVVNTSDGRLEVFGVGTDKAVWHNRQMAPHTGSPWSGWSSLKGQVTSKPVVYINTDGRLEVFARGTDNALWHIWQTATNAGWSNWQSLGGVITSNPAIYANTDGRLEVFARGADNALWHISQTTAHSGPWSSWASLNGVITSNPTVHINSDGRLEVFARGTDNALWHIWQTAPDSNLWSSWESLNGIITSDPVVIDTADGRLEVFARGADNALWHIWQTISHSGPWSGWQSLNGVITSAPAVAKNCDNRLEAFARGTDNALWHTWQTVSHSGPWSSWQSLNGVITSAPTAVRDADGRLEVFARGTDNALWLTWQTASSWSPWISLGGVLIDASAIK
Method: To analyse the competitive inhibition of PHL binding to a multivalent surface, the surface plasmon resonance (SPR) technique was employed. A sensor chip presenting α-L-fucopyranoside residues was treated with a constant concentration of PHL, while an increasing concentration of the ligands was used to determine IC50 (Table 2, Fig. 3). […] To assess the contribution of valency to the affinity increase, an affinity improvement factor β was calculated as the relationship IC50,basic unit/(valency × IC50,ligand)[30].
Surface plasmon resonance (SPR) experiments were performed on a BIAcore T200 instrument (GE Healthcare, UK) at 25 °C, using buffer A supplemented with 0.05% Tween 20 as a running buffer. α-L-fucoside was immobilized onto CM5 sensor chip (GE Healthcare, UK) covered with a carboxymethylated dextran matrix. The sensor chip surface was activated with N-ethyl-N-(3-dimethylaminopropyl)carbodiimide/N-hydroxysuccinimide solution and then coated with streptavidin using the manufacturer’s standard protocol using HBS buffer (10 mM HEPES, 150 mM NaCl, 0.05% Tween 20, pH 7. 5). Unreacted groups were blocked with 1 M ethanolamine-HCl, pH 8.5. Biotinylated carbohydrate (biotinilated monomeric probes, Lectinity, Russia) was injected onto particular measuring channel and pure biotin on blank channel at a flow rate of 5 μl/min.
SPR inhibition measurements were carried out on measuring channel with L-fucoside at a flow rate of 5 µl/min. PHL was diluted to a concentration of 20 μg/ml by the buffer A supplemented with 0.05% Tween 20, mixed 1:1 (v/v) with various concentrations of inhibitors (500–5 μM) in the same buffer and injected onto the sensor chip. The response of lectin bound to the sugar surface at equilibrium was plotted against the concentration of inhibitor in order to determine IC50 (concentration of inhibitor resulting in 50% inhibition of binding). As IC50 is not a constant and depends on the experimental set-up, a parameter called potency was used for characterization. The potency of a tested inhibitor is the ratio of IC50 of a chosen standard inhibitor (in this case L-fucose) and the inhibitor in question. Pure PHL lectin was used as a control (0% inhibition) and channel with pure biotin served as a blank. IC50 was determined from triplicates.

[2] = target: T1, PHL; assay: Isothermal titration calorimetry of PHL with ligands; assay type: binding; details: for n (stoichiometry): two independent measurements; for Potency L-Fuc: KD L-fucose / KD ligand; for β L-Fuc (affinity improvement factor): KD,basic unit/(valency × KD,ligand), basic unit L-Fuc
Description: The binding of PHL to different α-L-fucoside compounds was further characterized by isothermal titration calorimetry (ITC), enabling determination of the complete thermodynamic profile of the molecular interactions (Table 3, Fig. 4). […] Because of this, it was not possible to evaluate the data, despite the obvious interaction. The dendrimers also cross-linked/aggregated the protein as with calixarenes, however the curves provided clear outcomes with an affinity in the low micromolar range. The dissociation constants (KD) of all dendrimers correlate with their valency – the higher number of fucose, the more decreased KD. […] The stoichiometry value n corresponds to the number of terminal fucoses per ligand molecule. The n value decreases from 4 to 1 as the number of fucose units increases from 1 to 12 (Table 3).
PHL protein in buffer A was equilibrated at room temperature at least for 30 min before ITC measurement. All ITC experiments were performed using ITC200 calorimeter (Malvern Panalytical, UK) at 25 °C. Carbohydrate ligands dissolved in buffer A were used at different concentrations. Protein in the calorimeter cell (50 μM) was titrated by consecutive additions (2 μl) of the ligand (1.5–5 mM) in the syringe while stirring at 1000 rpm. Integrated heat effects were analysed by nonlinear regression using a single-site binding model and global fitting in Origin 7 software (Microcal Instruments)[37]. The thermodynamic parameters of synthesised inhibitors were determined from two independent measurements.

[3] = target: T1, PHL; assay: Hemagglutination inhibition assay with PHL (papain-treated human RBCs O); assay type: cell-based; details: for MIC (minimal inhibitory concentration, hemagglutination by PHL): RBC O, two independent measurements; for PotencyL-Fuc: MIC L-fucose / MIC ligand; for β L-Fuc (affinity improvement factor): MICbasic unit/(valency × MICligand), basic unit L-Fuc
Method: The set of potential ligands 1–10 with different levels of fucosylation was tested, and their inhibition potency on hemagglutination by PHL was assessed (Table 1, Fig. 2). […] To assess the contribution of valency to the affinity increase, an affinity improvement factor β was calculated as the relationship MICbasic unit/(valency × MICligand).
Human red blood cells (RBCs) O were processed according to previously published work[16]. In brief, RBCs O treated with sodium citrate were washed four times by PBS buffer (137 mM NaCl, 2.7 mM KCl, 8 mM Na2HPO4, 1.47 mM KH2PO4, pH 7.4), diluted to 50% by PBS with 0.005% (w/w) sodium azide and treated by 0.1% papain for the duration of 30 minutes.
Hemagglutination inhibition assay was performed for specificity and semi-quantitative affinity of the PHL interaction with the compounds. All carbohydrate inhibitors in 50 mM starting concentration were serially diluted in the PBS buffer and used for a determination of the lowest inhibiting concentration. As a blank, the PBS buffer supplemented with the appropriate amount of DMSO was used in order to exclude potential interference with the interaction. The individual samples were mixed with the lectin in concentration 2 mg/ml in a 5 μl:5 μl ratio. Thereafter, 10 μl of 10% RBCs O in PBS buffer was added, thoroughly mixed and incubated for 10 minutes at room temperature. Following incubation, the mixture was again mixed and the reaction was observed on microscope slides using Levenhuk 2L NG microscope with Levenhuk D2L digital camera (Levenhuk, USA). Imagines were obtained via software ToupView for Windows (Levenhuk). The positive (PHL without inhibitor) and negative control (reaction without PHL) were prepared and processed in the same way using the appropriate volume of PBS buffer instead of the not included components. The lowest concentration of inhibitor able to inhibit agglutination was determined and compared with the standard (L-fucose). Minimal inhibitory concentrations (MIC) of synthesised inhibitors were determined from two independent measurements.

Compound	IC50 [1] [µM]	β L-Fuc (affinity improvement factor) [1]	PotencyL-Fuc [1]	Kd ([2]; ITC at 25 °C) [µM]	−TΔS ([2]; ITC at 25 °C) [kJ/mol]	−ΔG ([2]; ITC at 25 °C) [kJ/mol]	−ΔH ([2]; ITC at 25 °C) [kJ/mol]	n (stoichiometry) ([2]; ITC at 25 °C)	Potency L-Fuc ([2]; ITC)	β L-Fuc (affinity improvement factor) ([2]; ITC)	MIC (minimal inhibitory concentration, hemagglutination by PHL) [3]	PotencyL-Fuc ([3]; hemagglutination)	β L-Fuc (affinity improvement factor) ([3]; hemagglutination)	also measured
C[C@@H]1O[C@@H](CCn2cc(COCC(COCc3cn(CC[C@@H]4O[C@@H](C)[C@@H](O)[C@@H](O)[C@@H]4O)nn3)(COCc3cn(CC[C@@H]4O[C@@H](C)[C@@H](O)[C@@H](O)[C@@H]4O)nn3)COCC(COCc3cn(CC[C@@H]4O[C@@H](C)[C@@H](O)[C@@H](O)[C@@H]4O)nn3)(COCc3cn(CC[C@@H]4O[C@@H](C)[C@@H](O)[C@@H](O)[C@@H]4O)nn3)COCc3cn(CC[C@@H]4O[C@@H](C)[C@@H](O)[C@@H](O)[C@@H]4O)nn3)nn2)[C@@H](O)[C@H](O)[C@@H]1O [Dendrimer 9]	0.037 ± 0.003	1,631	9,762	12.5 ± 0.6	43.5 ± 1.6	28.0 ± 1.3	71.5 ± 0.8	2.0 ± 0.0	112	19	25 µM (≈ 44.6 µg/mL)	125	20.8	β L-Fuc (affinity improvement factor) ([1]; listed as dendrimer 9): over 1,600; PotencyL-Fuc ([1]; listed as dendrimer 9): 9,800; β Azide1 (affinity improvement factor) ([1]; basic unit azide 1): 52; PotencyAzide1 ([1]; relative to azide 1): 311; PotencyAzide1 ([1]; relative to azide 1, listed as dendrimer 9): 310; Kd ([2]; ITC at 25 °C, listed as hexavalent dendrimer): 13 µM; β Azide1 (affinity improvement factor) ([2]; ITC, basic unit azide 1): 1; PotencyAzide1 ([2]; ITC, relative to azide 1): 8; PotencyL-Fuc ([3]; hemagglutination, listed as dendrimer 9): more than 100; β Azide1 (affinity improvement factor) ([3]; hemagglutination, basic unit azide 1): 1.3; PotencyAzide1 ([3]; hemagglutination, relative to azide 1): 8
C[C@@H]1OC(CCCCC2O[C@@H](C)[C@@H](O)[C@@H](O)[C@@H]2O)[C@@H](O)[C@H](O)[C@@H]1O (stereo partly drawn) [Difucoside 5, 1,4-bis(fucopyranosyl)butane]	4.18 ± 0.42	43	86	120 ± 11	15.1 ± 3.3	22.4 ± 2.1	37.5 ± 2.6	3.9 ± 0.2	12	6	200 µM (≈ 70.1 µg/mL)	15.6	7.8	PotencyL-Fuc ([3]; hemagglutination, listed as difucoside 5): 16
C[C@H](O)[C@@H](O)[C@@H](O)[C@H](O)C=O [L -Fuc, L-fucose, reference compound]	362 ± 33	1	1	1400	43.2 ± 1.0	16.3 ± 0.4	59.5 ± 1.0	–	1	1	3,200 μM	1	1	n (stoichiometry), fixed during the fitting procedure ([2]; ITC at 25 °C, fixed value based on α-Me-Fuc measurement and PHL/BGH crystal structure): 3*
